Where two headings read alike, the source gives them in different places.
Experiments:
SK3 channel = biological target: T1, SK3 channel (Rattus norvegicus, UniProt P70605); assay: Conventional manual patch clamp on HEK-rSK3 cells, SK3 channel activity; assay type: cell-based; details: for inhibition at 0.001 µM: 1 nM; for inhibition at 0.5 µM: 500 nM
T1 construct: expressed in transfected cells
From the text: (§1) Cell Lines Used to Screen the Molecules on the Activity of SKCa Channels (Small Conductance Calcium-Activated Potassium Channel; SK1, SK2 and SK3) and IKCa Channels (Intermediate Conductance Calcium-Activated Potassium Channel, SK4)
(§2) Use was made of the HEK 293 T line, a foetal kidney line which was immortalised with the T antigen of the […] simian virus. This cell line is widely used on account of the ease with which these cells can be transfected with plasmids or other transfection vectors. Four stable lines were used for patch clamp experiments: HEK-hSK1, HEK-rSK2, HEK-rSK3 and HEK-IKCa/SK4 which respectively overexpress the SK1, SK2, SK3 and SK4 channels. The lines were obtained via stable transduction (Girault et al., Current Cancer Drug Targets, 2011, 11, 1111-25) and are those already routinely used to assay SK3 modulators (Potier et al. Br J Pharmacol. 2011 January; 162(2):464-79; Sevrain et al., Med. Chem. Commun., 2012, 3, 1471-1478; Sevrain et al., Organic & Biomolecular Chemistry, 2013 Jul. 21; 11(27):4479-87, Berthe W, Sevrain C M, Chantôme A, Bouchet A M, Gueguinou M, Fourbon Y, Potier-Cartereau M, Haelters J P, Couthon-Gourvès H, Vandier C, Jaffrès P A. ChemMedChem. 2016 Jul. 19; 11(14):1531-9). […] These lines therefore enabled us without difficulty to examine the effect of the molecules on the SK3 channel, and also the selectivity thereof by means of the patch clamp technique. The inhibitory activity of the non-toxic molecules was assayed on the activity of the SK3 channel. The selectivity of the molecules was determined by patch clamp on HEK cell models stably expressing the SK3 channel but also the SK1, SK2, SK3 or IKCa/SK4 channels.
Electrophysiology/Patch-Clamp
(§3) Patch clamp is a technique allowing measurement of the activity of ion channels by recording macroscopic (whole cell configuration) or microscopic (e.g. inside out configuration) ionic currents through the plasma membrane. For assay of the effect of the molecules on the SKCa/IKCa channels, two complementary techniques were used: conventional, manual patch clamp and automated patch clamp with the Nanion NPC-16 Patchliner Quattro (4 channels) (Potier et al., Mol Cancer Ther 2006, 5, 2946-53; Chantome et al., Exp Cell Res 2009, 315, 3620-30; Potier et al., Biochem Biophys Res Commun 2010, 397, 42-7; Girault et al., Current Cancer Drug Targets, 2011, 11, 1111-25; Sevrain et al., Med. Chem. Commun., 2012, 3, 1471-1478; Sevrain et al., Organic & Biomolecular Chemistry, 2013 Jul. 21; 11(27):4479-87; Chantome et al., Cancer Research, 2013 Aug. 1; 73(15):4852-61, Gueguinou M, Crottès D, Chantôme A, Rapetti-Mauss R, Potier-Cartereau M, Clarysse L, Girault A, Fourbon Y, Jézéquel P, Guérin-Charbonnel C, Fromont G, Martin P, Pellissier B, Schiappa R, Chamorey E, Mignen O, Uguen A, Borgese F, Vandier C, Soriani O. Oncogene. 2017 Jan. 23. doi: 10.1038/onc.2016.501, Berthe W, Sevrain C M, Chantôme A, Bouchet A M, Gueguinou M, Fourbon Y, Potier-Cartereau M, Haelters J P, Couthon-Gourvès H, Vandier C, Jaffrès P A. ChemMedChem. 2016 Jul. 19; 11(14):1531-9, Guéguinou M, Harnois T, Crottes D, Uguen A, Deliot N, Gambade A, Chantôme A, Haelters J P, Jaffrès P A, Jourdan M L, Weber G, Soriani O, Bougnoux P, Mignen O, Bourmeyster N, Constantin B, Lecomte T, Vandier C, Potier-Cartereau M. Oncotarget. 2016 Jun. 14; 7(24):36168-36184. doi: 10.18632/oncotarget.8786).
For conventional patch clamp, the micropipette is filled with an intrapipette medium—IPM (see composition below) and allows measurement of ionic currents at the same time as allowing maintaining of membrane potential (voltage clamp). The experimental device was composed of an anti-vibration table supporting an inverted microscope (Nikon, Eclipse TE 300). The Petri dish (Corning Incorporated, USA), containing the cells was placed on a plexiglass plate attached to the microscope stage. The pipette was connected to the amplifier (Axopatch 200B) as reference electrode which allowed closing of the electrical circuit. […]

SK2 channel = biological target: T2, SK2 channel (Rattus norvegicus, UniProt P70604); assay: Automated patch clamp (Nanion NPC-16 Patchliner Quattro) on HEK-rSK2 cells, SK2 channel activity; assay type: cell-based; details: for inhibition at 0.001 µM: 1 nM; for inhibition at 0.01 µM: 10 nM
T2 construct: expressed in transfected cells
From the text: as §1, §2, §3
The technique of choice to determine molecules inhibiting the activity of ion channels is the patch-clamp technique. However, this technique which is manual is time-consuming and only gives low yields. Automation of patch-clamp brought a revolution in the study and screening of ion channels and has allowed the envisaging of assays with much faster flow rate and much higher yield. There exist several automatic patch clamp devices based on the use of chips. […]

Structure (SMILES)	inhibition at 0.1 µM (SK3 channel; 100 nM)	inhibition at 10 µM (SK3 channel; 10 μM)	inhibition at 0.1 µM (SK2 channel; 100 nM)	inhibition at 10 µM (SK2 channel; 10 μM)	inhibition at 0.05 µM (SK3 channel; 50 nM)	further results
c1ccc2c(c1)CCCC2Nc1ncnc2cccnc12 (centres unmarked) [Compound 7, N-(1,2,3,4-Tetrahydronaphthalen-1-yl)pyrido[3,2-d]pyrimidin-4-amine]						inhibition at 0.001 µM (SK3 channel): 42.2%; % SK3 inhibition (SK3 channel; 10 nM): 10 nM: 56.1 ± 4.8 (N = 3) %; % SK3 inhibition (SK3 channel; 100 nM): 100 nM: 81.3 ± 1.0 (N = 3) %; % SK3 inhibition (SK3 channel; 10 μM): 10 μM: 83.4 ± 3.2 (N = 8) %; inhibition at 0.001 µM (SK2 channel): 35%; inhibition at 0.01 µM (SK2 channel): 89.3%; % SK2 inhibition (SK2 channel; 100 nM): 100 nM: 91.5 ± 1.6 (N = 9) %; % SK2 inhibition (SK2 channel; 10 μM): 10 μM: 95.6 ± 1.2 (N = 9) %
c1ccc2c(c1)CCC[C@H]2Nc1ncnc2cccnc12 [Compound 18, (R)—N-(1,2,3,4-Tetrahydronaphthalen-1-yl)pyrido[3,2-d]pyrimidin-4-amine]	96%	89.9%	92.9%	97%		inhibition at 0.001 µM (SK3 channel): 44.7%; inhibition at 0.01 µM (SK3 channel; 10 nM): 59.7%; inhibition at 0.001 µM (SK2 channel): 36.7%; inhibition at 0.01 µM (SK2 channel): 81.4%
c1cnc2c(NC3CCCCC3)ncnc2c1 [Compound 23, N-Cyclohexylpyrido[3,2-d]pyrimidin-4-amine]		8.4%		1%		
c1ccc2c3c(ccc2c1)CCCC3Nc1ncnc2cccnc12 (centres unmarked) [Compound 29, N-(1,2,3,4-Tetrahydrophenanthren-4-yl)pyrido[3,2-d]pyrimidin-4-amine]		46%		16.2%		
Cc1nc(NC2CCCc3ccccc32)c2ncccc2n1 (centres unmarked) [Compound 30, 2-Methyl-N-(1,2,3,4-tetrahydronaphthalen-1-yl)pyrido[3,2-d]pyrimidin-4-amine]		87.2%		95%	35.5%	inhibition at 0.5 µM (SK3 channel): 52.9%
Oc1nc(NC2CCCc3ccccc32)c2ncccc2n1 (centres unmarked) [Compound 34, 4-(1,2,3,4-tetrahydronaphthalen-1-ylamino)pyrido[3,2-d]pyrimidin-2-ol]			92.7%	94.8%	32.9%	inhibition at 0.5 µM (SK3 channel): 40.4%
CNc1nc(NC2CCCc3ccccc32)c2ncccc2n1 (centres unmarked) [Compound 35, N^2-methyl-N^4-(1,2,3,4-tetrahydronaphthalen-1-yl)pyrido[3,2-d]pyrimidine-2,4-diamine]			83.7%	91.4%		
CCCCCCc1cnc2c(NC3CCCc4ccccc43)ncnc2c1 (centres unmarked) [Compound 40, 7-Hexyl-N-(1,2,3,4-tetrahydronaphthalen-1-yl)pyrido[3,2-d]pyrimidin-4-amine]	11.9%	82.2%	25.6%	88.1%		
c1ccc2c(c1)CCCN2Nc1ncnc2cccnc12 [Compound 53, N-(3,4-Dihydroquinolin-1(2H)-yl)pyrido[3,2-d]pyrimidin-4-amine]	41.9%	62.2%	41.9%	62.2%	29.2%	inhibition at 0.001 µM (SK3 channel): 7.4%; inhibition at 0.01 µM (SK3 channel; 10 nM): 42.6%; inhibition at 0.5 µM (SK3 channel): 94.2%; inhibition at 0.05 µM (SK2 channel; 50 nM): 29.2%; inhibition at 0.5 µM (SK2 channel; 500 nM): 43.2%
Cl.c1ccc2c(c1)CCCC2Nc1ncnc2cccnc12 (centres unmarked) [Compound 75, N-Tetralin-1-ylpyrido[3,2-d]pyrimidin-3-ium-4-amine chloride]	85.4%	88.8%	80%	93.3%		% SK3 inhibition (SK3 channel; 10 nM): 10 nM: 92.43 ± 0.78 (N = 2) %
COCOc1ccc2c(c1)CCCC2N (centres unmarked) [Compound 103, 6-(Methoxymethoxy)-1,2,3,4-tetrahydronaphthalen-1-amine]	57.9%	83.8%			30.7%	inhibition at 0.5 µM (SK3 channel): 46.9%
OC1CCc2ccccc2C1Nc1ncnc2cccnc12 (centres unmarked) [Compound 107, 1-(pyrido[3,2-d]pyrimidin-4-ylamino)-1,2,3,4-tetrahydro-naphthalen-2-ol]	46.8%	54.7%			29.7%	
Clc1ccc2ncnc(N[C@H]3CCCc4ccccc43)c2n1 [Compound 133, 6-Chloro-N-[(1S)-tetralin-1-yl]pyrido[3,2-d]pyrimidin-4-amine]	56.3%	67.3%			39%	
OC1CCC(Nc2ncnc3cccnc23)c2ccccc21 (centres unmarked) [Compound 142-E1, 4-(Pyrido[3,2-d]pyrimidin-4-ylamino)tetralin-1-ol]					35.3%	% SK3 inhibition (SK3 channel; 100 nM, 0.1 µM): 100 nM: 44.55 ± 5.67 (N = 5) %; % SK3 inhibition (SK3 channel; 10 μM): 10 μM: 57.16 ± 5.51 (N = 4) %
OC1CCC(Nc2ncnc3cccnc23)c2ccccc21 (centres unmarked) [Compound 142-E2, 4-(Pyrido[3,2-d]pyrimidin-4-ylamino)tetralin-1-ol]						% SK3 inhibition (SK3 channel; 50 nM, 0.05 µM): 50 nM: 35.72 ± 1.79 (N = 4) %; % SK3 inhibition (SK3 channel; 100 nM, 0.1 µM): 100 nM: 59.42 ± 3.43 (N = 4) %; % SK3 inhibition (SK3 channel; 10 μM): 10 μM: 75.11 ± 2.87 (N = 4) %
OC1CCC(Nc2ncnc3cccnc23)c2ccccc21 (centres unmarked) [Compound 142-E3, 4-(Pyrido[3,2-d]pyrimidin-4-ylamino)tetralin-1-ol]						% SK3 inhibition (SK3 channel; 50 nM, 0.05 µM): 50 nM: 30.69 ± 3.07 (N = 4) %; % SK3 inhibition (SK3 channel; 100 nM, 0.1 µM): 100 nM: 49.71 ± 4.48 (N = 4) %; % SK3 inhibition (SK3 channel; 10 μM): 10 μM: 58.9 ± 6.08 (N = 4) %
OC1CCC(Nc2ncnc3cccnc23)c2ccccc21 (centres unmarked) [Compound 142-E4, 4-(Pyrido[3,2-d]pyrimidin-4-ylamino)tetralin-1-ol]						% SK3 inhibition (SK3 channel): 10 μM: 48.28 ± 5.99 (N = 3) %; % SK3 inhibition (SK3 channel; 50 nM, 0.05 µM): 50 nM: 21.9 ± 2.32 (N = 3) %; % SK3 inhibition (SK3 channel; 100 nM, 0.1 µM): 100 nM: 37.97 ± 3.99 (N = 3) %
O=C1CCC(Nc2ncnc3cccnc23)c2ccccc21 (centres unmarked) [Compound 152, 4-(Pyrido[3,2-d]pyrimidin-4-ylamino)tetralin-1-one]	41.5%	61.2%			24.4%	
Fc1ccc2c(c1)CCCC2Nc1ncnc2cccnc12 (centres unmarked) [Compound 157, N-(6-Fluorotetralin-1-yl)pyrido[3,2-d]pyrimidin-4-amine]	51.1%	54%			32%	
Fc1cnc2c(N[C@H]3CCCc4ccccc43)ncnc2c1 [Compound 158, 7-Fluoro-N-[(1S)-tetralin-1-yl]pyrido[3,2-d]pyrimidin-4-amine]	64.1%	84.8%			35.8%	
